In brackets after ≈: the same amount, converted by molar mass.
Legend:
Mus musculus [1] = test: Compound was evaluated for antitumor activity against L1210 leukemia in mice after subcutaneous administration (Q2Dx5) at a dose 32 mg/kg; assay type: functional; conditions: L1210, sc
L1210 [2] = test: Compound was evaluated for transport properties against L1210 cells for efflux; assay type: functional, Mus musculus
L1210 [3] = test: Compound was evaluated for growth inhibition and minimal inhibitory concentration was reported against L1210 cells.; assay type: functional, Mus musculus
Mus musculus [4] = test: Compound was evaluated for antitumor activity against L1210 leukemia in mice after subcutaneous administration (Q2Dx5) at a dose 9 mg/kg; assay type: functional; conditions: for ILS at 9 mg/kg: Mus musculus, L1210, sc
Mus musculus [5] = test: (§1) Antitumor activity against L1210 leukemia in mice after subcutaneous administration (Q2Dx5) at a dose 24 mg/kg out of 9 mice tested; assay type: ADME, organism-based; design: dose 24 mg/kg, route subcutaneous; conditions: in vivo, sc
Mus musculus [6] = test: Compound was evaluated for antitumor activity against L1210 leukemia in mice after subcutaneous administration (Q2Dx5) at 32 mg/kg; assay type: functional
Mus musculus [7] = test: (§2) Antitumor activity against L1210 leukemia in mice after subcutaneous administration (Q2Dx5) at a dose 12 mg/kg out of 3 mice tested; assay type: functional
Mus musculus [8] = test: Antitumor activity against L1210 leukemia in mice after subcutaneous administration (Q2Dx5) at a dose 17 mg/kg out of 9 mice tested; assay type: functional
Mus musculus [9] = test: (§3) Antitumor activity against L1210 leukemia in mice after subcutaneous administration (Q2Dx5) at a dose 32 mg/kg out of 6 mice tested; assay type: ADME, organism-based; design: dose 32 mg/kg, route subcutaneous; conditions: in vivo, sc
Mus musculus [10] = test: Antitumor activity against L1210 leukemia in mice after subcutaneous administration (Q2Dx5) at a dose 18 mg/kg out of 9 mice tested; assay type: ADME, organism-based; design: dose 18 mg/kg, route subcutaneous; conditions: in vivo, sc
Mus musculus [11] = test: as §1; assay type: functional
Mus musculus [12] = test: Compound was evaluated for antitumor activity against L1210 leukemia in mice after subcutaneous administration (Q2Dx5) at a dose 12 mg/kg; assay type: functional; conditions: for ILS at 12 mg/kg: L1210, sc
Mus musculus [13] = test: as §3; assay type: functional
L1210 [14] = test: (§4) Compound was evaluated for transport properties against L1210 cells for influx; assay type: functional, cell-based, Mus musculus
Mus musculus [15] = test: as §2; assay type: ADME, organism-based; design: dose 12 mg/kg, route subcutaneous; conditions: in vivo, sc
Mus musculus [16] = test: Compound was evaluated for antitumor activity against L1210 leukemia in mice after subcutaneous administration (Q2Dx5) at a dose 18 mg/kg; assay type: functional; conditions: for ILS at 18 mg/kg: L1210, sc
Mus musculus [17] = test: Antitumor activity against L1210 leukemia in mice after subcutaneous administration (Q2Dx5) at a dose 18/mg/kg out of 9 mice tested; assay type: functional
Mus musculus [18] = test: (§5) Antitumor activity against L1210 leukemia in mice after subcutaneous administration (Q2Dx5) at a dose 12 mg/kg out of 9 mice tested; assay type: functional
Mus musculus [19] = test: Compound was evaluated for antitumor activity against L1210 leukemia in mice after subcutaneous administration (Q2Dx5) at a dose 24 mg/kg; assay type: functional; conditions: for ILS at 24 mg/kg: L1210, sc
Mus musculus [20] = test: (§6) Antitumor activity against L1210 leukemia in mice after subcutaneous administration (Q2Dx5) at a dose 9 mg/kg out of 6 mice tested; assay type: ADME, organism-based; design: dose 9 mg/kg, route subcutaneous; conditions: in vivo, sc
Mus musculus [21] = test: as §6; assay type: functional
Mus musculus [22] = test: as §5; assay type: ADME, organism-based; design: dose 12 mg/kg, route subcutaneous; conditions: in vivo, sc
Mus musculus [23] = test: (§7) Antitumor activity against L1210 leukemia in mice after subcutaneous administration (Q2Dx5) at a dose 24 mg/kg out of 3 mice tested; assay type: functional
Mus musculus [24] = test: as §7; assay type: ADME, organism-based; design: dose 24 mg/kg, route subcutaneous; conditions: in vivo, sc
Enterococcus faecium = test: Compound was evaluated for growth inhibition against Streptococcus faecium ATCC 8043; assay type: functional, organism-based
Mus musculus [25] = test: Compound was evaluated for antitumor activity against L1210 leukemia in mice after subcutaneous administration (Q2Dx5) at 18 mg/kg; assay type: functional
Mus musculus [26] = test: (§8) Antitumor activity against L1210 leukemia in mice after subcutaneous administration (Q2Dx5) at a dose 18 mg/kg out of 10 mice tested; assay type: functional
Mus musculus [27] = test: (§9) Antitumor activity against L1210 leukemia in mice after subcutaneous administration (Q2Dx5) at a dose 12 mg/kg out of 10 mice tested; assay type: functional
Mus musculus [28] = test: as §9; assay type: ADME, organism-based; design: dose 12 mg/kg, route subcutaneous; conditions: in vivo, sc
Mus musculus [29] = test: (§10) Antitumor activity against L1210 leukemia in mice after subcutaneous administration (Q2Dx5) at a dose 24 mg/kg out of 10 mice tested; assay type: functional
Mus musculus [30] = test: (§11) Antitumor activity against L1210 leukemia in mice after subcutaneous administration (Q2Dx5) at a dose 32 mg/kg out of 10 mice tested; assay type: functional
Mus musculus [31] = test: (§12) Antitumor activity against L1210 leukemia in mice after subcutaneous administration (Q2Dx5) at a dose 9 mg/kg out of 10 mice tested; assay type: ADME, organism-based; design: dose 9 mg/kg, route subcutaneous; conditions: in vivo, sc
Mus musculus [32] = test: as §10; assay type: ADME, organism-based; design: dose 24 mg/kg, route subcutaneous; conditions: in vivo, sc
Mus musculus [33] = test: as §8; assay type: ADME, organism-based; design: dose 18 mg/kg, route subcutaneous; conditions: in vivo, sc
Mus musculus [34] = test: Compound was evaluated for antitumor activity against L1210 leukemia in mice after subcutaneous administration (Q2Dx5) at 24 mg/kg; assay type: functional
Mus musculus [35] = test: as §11; assay type: ADME, organism-based; design: dose 32 mg/kg, route subcutaneous; conditions: in vivo, sc
Mus musculus [36] = test: as §12; assay type: functional
Dihydrofolate reductase = molecular target: T1, Dihydrofolate reductase (Mus musculus, UniProt P00375); test: Compound was evaluated for binding affinity against Dihydrofolate reductase of L1210 cells; assay type: cell-based
T1 sequence (P00375 whole entry): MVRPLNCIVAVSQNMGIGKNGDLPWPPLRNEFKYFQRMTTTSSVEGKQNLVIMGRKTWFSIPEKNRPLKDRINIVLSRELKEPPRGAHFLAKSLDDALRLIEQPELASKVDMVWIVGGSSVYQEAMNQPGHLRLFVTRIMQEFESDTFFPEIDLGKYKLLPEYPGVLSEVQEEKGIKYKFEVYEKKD

L1210 [37] = test: as §4; assay type: functional, Mus musculus
Lacticaseibacillus casei = test: Compound was evaluated for growth inhibition against Lactobacillus casei ATCC 7469; assay type: functional, organism-based
[38] = Enterococcus faecium, ATCC 8043, read-out: IC50

CC[C@@H](Cc1cnc2nc(N)nc(N)c2n1)c1ccc(C(=O)N[C@@H](CCC(=O)O)C(=O)O)cc1
ILS at 32 mg/kg (Mus musculus [1]): 181%
k (L1210 [2]): 0.249 min⁻¹
MIC50 (L1210 [3]; Mus musculus): 1.52 nM (≈ 0.711 ng/mL)
MST (Mus musculus [4]): 15.7 days
Toxic deaths (Mus musculus [5]): 0
MST (Mus musculus [6]): 18.8 days
30 days survivors (Mus musculus [7]): 0
30 days survivors (Mus musculus [8]): 0
Toxic deaths (Mus musculus [9]): 1
Toxic deaths (Mus musculus [10]): 0
30 days survivors (Mus musculus [11]): 0
ILS at 24 mg/kg (Mus musculus [11]; L1210, sc): 163%
ILS at 12 mg/kg (Mus musculus [12]): 138%
30 days survivors (Mus musculus [13]): 0
Ki (L1210 [14]): 1.62 µM
Toxic deaths (Mus musculus [15]): 0
MST (Mus musculus [16]): 17.3 days
ILS at 18 mg/kg (Mus musculus [16]): 187%

CC[C@H](Cc1cnc2nc(N)nc(N)c2n1)c1ccc(C(=O)N[C@@H](CCC(=O)O)C(=O)O)cc1
30 days survivors (Mus musculus [17]): 1
k (L1210 [2]): 0.253 min⁻¹
30 days survivors (Mus musculus [18]): 0
MIC50 (L1210 [3]; Mus musculus): 0.43 nM (≈ 0.201 ng/mL)
MST (Mus musculus [4]): 18.3 days
ILS at 9 mg/kg (Mus musculus [4]): 177%
MST (Mus musculus [19]): 10 days
ILS at 24 mg/kg (Mus musculus [19]): 55%
Toxic deaths (Mus musculus [20]): 0
Toxic deaths (Mus musculus [10]): 5
MST (Mus musculus [12]): 19.8 days
ILS at 12 mg/kg (Mus musculus [12]): 199%
30 days survivors (Mus musculus [21]): 0
Toxic deaths (Mus musculus [22]): 3
Ki (L1210 [14]): 1.58 µM
30 days survivors (Mus musculus [23]): 0
MST (Mus musculus [16]): 17.5 days
ILS at 18 mg/kg (Mus musculus [16]): 165%
Toxic deaths (Mus musculus [24]): 3

CC[C@H](CC1CNc2nc(N)nc(N)c2N1)c1ccc(C(=O)N[C@@H](CCC(=O)O)C(=O)O)cc1 (mixture of isomers)
IC50 (Enterococcus faecium; [38]): 2.5 ng/mL

CCC(Cc1cnc2nc(N)nc(N)c2n1)c1ccc(C(=O)NC(CCC(=O)O)C(=O)O)cc1 (racemic)
ILS at 32 mg/kg (Mus musculus [1]): 67%
MST (Mus musculus [25]): 19.3 days
30 days survivors (Mus musculus [26]): 0
30 days survivors (Mus musculus [27]): 0
MST (Mus musculus [4]): 15.5 days
ILS at 9 mg/kg (Mus musculus [4]): 135%
MST (Mus musculus [6]): 16 days
Toxic deaths (Mus musculus [28]): 0
ILS at 24 mg/kg (Mus musculus [19]): 207%
30 days survivors (Mus musculus [29]): 2
30 days survivors (Mus musculus [30]): 0
Toxic deaths (Mus musculus [31]): 0
MST (Mus musculus [12]): 16.7 days
ILS at 12 mg/kg (Mus musculus [12]): 153%
Toxic deaths (Mus musculus [32]): 2
Toxic deaths (Mus musculus [33]): 0
MST (Mus musculus [34]): 20.3 days
ILS at 18 mg/kg (Mus musculus [16]; Mus musculus): 193%
Toxic deaths (Mus musculus [35]): 10
30 days survivors (Mus musculus [36]): 0

CCC(CC1=Nc2c(N)nc(N)nc2NC1)c1ccc(C(=O)NC(CCC(=O)O)C(=O)O)cc1 (racemic)
IC50 (Enterococcus faecium; [38]): 1.1 ng/mL (≈ 2.34 nM)

CCC(CC1CNc2nc(N)nc(N)c2N1)c1ccc(C(=O)NC(CCC(=O)O)C(=O)O)cc1 (racemic)
IC50 (Enterococcus faecium; [38]): 2.6 ng/mL (≈ 5.51 nM)

CC[C@H](CC1CNc2nc(N)nc(N)c2N1)c1ccc(C(=O)N[C@@H](CCC(=O)O)C(=O)O)cc1 (stereo in doubt)
IC50 (Enterococcus faecium): 3.1 ng/mL (≈ 6.57 nM)

C[C@H](Cc1cnc2nc(N)nc(N)c2n1)c1ccc(C(=O)N[C@@H](CCC(=O)O)C(=O)O)cc1 (stereo in doubt; d-L-15a)
Ki (Dihydrofolate reductase): 4.24 pM
k (L1210 [37]): 0.258 min⁻¹
MIC50 (L1210 [3]; Mus musculus): 0.68 nM (≈ 0.308 ng/mL)
Ki (L1210 [14]): 1.91 µM

CC[C@@H](CC1=Nc2c(N)nc(N)nc2NC1)c1ccc(C(=O)N[C@@H](CCC(=O)O)C(=O)O)cc1 (stereo in doubt; form 1)
IC50 (Enterococcus faecium): 1.1 ng/mL (≈ 2.34 nM)

CC[C@@H](CC1=Nc2c(N)nc(N)nc2NC1)c1ccc(C(=O)N[C@@H](CCC(=O)O)C(=O)O)cc1 (stereo in doubt; form 2)
IC50 (Enterococcus faecium; [38]): 1.1 ng/mL (≈ 2.34 nM)

C[C@H](Cc1cnc2nc(N)nc(N)c2n1)c1ccc(C(=O)N[C@@H](CCC(=O)O)C(=O)O)cc1 (stereo in doubt; l-L-15a)
Ki (Dihydrofolate reductase): 3.17 pM
k (L1210 [37]): 0.267 min⁻¹
MIC50 (L1210 [3]): 1.18 nM (≈ 0.535 ng/mL)
Ki (L1210 [14]): 1.9 µM

CN(Cc1cnc2nc(N)nc(N)c2n1)c1ccc(C(=O)N[C@@H](CCC(=O)O)C(=O)O)cc1 [METHOTREXATE]
k (L1210 [2]): 0.213 min⁻¹
30 days survivors (Mus musculus [26]): 0
30 days survivors (Mus musculus [27]): 0
MIC50 (L1210 [3]; Mus musculus): 2.48 nM (≈ 1.13 ng/mL)
ILS (Mus musculus [4]): 137%
MST (Mus musculus [4]): 15.7 days
Toxic deaths (Mus musculus [28]): 1
MST (Mus musculus [19]): 9.6 days
ILS at 24 mg/kg (Mus musculus [19]): 46%
30 days survivors (Mus musculus [29]): 0
Toxic deaths (Mus musculus [31]): 0
MST (Mus musculus [12]): 16.3 days
Toxic deaths (Mus musculus [32]): 10
IC50 (Enterococcus faecium): 0.4 ng/mL (≈ 0.88 nM)
Ki (L1210 [14]): 5.61 µM
Toxic deaths (Mus musculus [33]): 6
ILS (Mus musculus [16]): 119%
MST (Mus musculus [16]): 14.5 days
IC50 (Lacticaseibacillus casei): 0.013 ng/mL (≈ 0.0286 nM)
30 days survivors (Mus musculus [36]): 0
